Measured values taken from US20070031398A1, “One of several enzyme-containing compounds, dietetic food products and drugs produced from and the use therefor for medical purpose” (MUCOS PHARMA GmbH & Co., priority 2003, published 2007).

Tested on: prostate carcinomas
Experiment: concomitant therapy during treatment of carcinomas
Type: in vivo
Details: prophylactic and therapeutic effects
From the text: This applies both to the period before, during and at defined intervals after the tumor-destructive therapy, e.g. an operation, chemotherapy and/or radiotherapy. The reduced intake of micronutrients (e.g. vitamins, trace elements) which is caused by nausea, reduced food intake, vomiting, diarrhea and sweating is compensated. This improves the patient's tolerance of the treatment, increases the response to the therapy and improves the patient's quality of life. […] Overall, the efficacy of the tumor-destructive therapy is improved.

CC(C)=CCC/C(C)=C/C=C/C(C)=C/C=C/C(C)=C/C=C/C=C(C)/C=C/C=C(C)/C=C/C=C(\C)CCC=C(C)C [lycopene]
incidence and aggressiveness of prostate carcinomas: reduction in the incidence and aggressiveness
